# According to patent publication US20170027952A1, “ASSOCIATION BETWEEN 3-[(3--2-OXO-2,3-DIHYDRO-1H-INDOL-5-YL)METHYL]-1,3-THIAZOLIDINE-2,4-DIONE AND AN EGFR TYR KINASE INHIBITOR” (LES LABORATOIRES SERVIER, priority 2015, published 2017):
# Structures can show the parent of a compound that is named as a salt.
# Legend:
# [1] = test system: erlotinib-resistant cell line HCC827; conditions: resistant line HCC827, compound on its own, 100 nM
# Procedure: A cell viability test allowing the anti-proliferative ability of the anti-tumour compounds to be measured was used. The chosen cell line is line HCC827, a non-small cell lung cancer line that depends upon EGFR for its survival. […] The cells are seeded (150 μl) at the appropriate density in the wells of 96-well plates 2 days prior to the experiment. One column contains the untreated control cells representing 100% proliferation. The others are incubated with the test products for 4 doubling times.
# [2] = test system: erlotinib-resistant HCC827 tumour; assay: Inhibition of the growth of the erlotinib-resistant HCC827 tumour; format: in vivo, female SCID mice; conditions: d19, end of treatments, compounds on their own, oral daily for 19 days; erlotinib 12.5 mg/kg, compound A 50 mg/kg
# Procedure: The tumours were allocated at random into groups of eight mice when the tumour volume had reached approximately 200 mm^3. […] The tumour volumes were measured two to three times each week using a sliding caliper. The median tumour volumes with the interquartile ranges are recorded on the graph.
smiles,measurement,setting,value
"O=C1Nc2ccc(CN3C(=O)CSC3=O)cc2C1=Cc1cc(CN2CCOCC2)c[nH]1 [compound A, 3-[(3-{[4-(4-morpholinyl-methyl)-1H-pyrrol-2-yl]methylene}-2-oxo-2,3-dihydro-1H-indol-5-yl)methyl]-1,3-thiazolidine-2,4-dione hydrochloride]",effect on the viability,[1],no effect on the viability
same,inhibition of the growth,[2],83%
